# From US20240209019A1, “COMPOUNDS AND METHODS FOR TREATING HYPERKALEMIA” (ARDELYX, INC., priority 2019, published 2024)
# Target: HSD2 (Homo sapiens (Human), UniProt P80365)
# Assay: HSD2 activity: cortisol conversion in human descending colon organoid monolayer cultures (Example 112)
# Conditions: human descending colon epithelial cultures on transwells; 30 minute pre-incubation, then 40 nM cortisol for four hours; cortisol HTRF assay
# Procedure: Human descending colon epithelial stem cells were cultured as 3D organoids in accordance with Sato et al. Gastroenterology. […] Cultures were differentiated using SBM containing ENRA and 30 nM aldosterone on day 3, and cultures were used for assay on day 6 or 7. Compounds were diluted in DMSO and serial dilutions prepared by titrating in DMSO. Compounds were then diluted into DMEM/F12. Transwell plates containing descending colon cultures were washed twice with DMEM/F12 and compound was added to the apical compartment. Cells were incubated with test compound for 30 minutes at 37° C., 5% CO2 to equilibrate across the cell membrane. A second compound plate was prepared in which the serially diluted compounds in DMSO were diluted into DMEM/F12 containing 40 nM cortisol. Following the 30 minute pre-incubation step, the apical media was aspirated and compounds diluted in DMEM/F12 with 40 nM cortisol were added to the apical side of the transwell. The plate was then incubated for four hours at 37° C., 5% CO2. Cortisol levels were measured using a cortisol HTRF assay kit as described by the manufacturer (Cisbio). Concentration-response curves were then plotted and IC50 (and pIC50) values were determined using least squares non-linear regression.
# Inhibition of HSD2 activity as measured by the inhibition of the conversion of cortisone to cortisol.
# HSD2, sequence (P80365 whole entry): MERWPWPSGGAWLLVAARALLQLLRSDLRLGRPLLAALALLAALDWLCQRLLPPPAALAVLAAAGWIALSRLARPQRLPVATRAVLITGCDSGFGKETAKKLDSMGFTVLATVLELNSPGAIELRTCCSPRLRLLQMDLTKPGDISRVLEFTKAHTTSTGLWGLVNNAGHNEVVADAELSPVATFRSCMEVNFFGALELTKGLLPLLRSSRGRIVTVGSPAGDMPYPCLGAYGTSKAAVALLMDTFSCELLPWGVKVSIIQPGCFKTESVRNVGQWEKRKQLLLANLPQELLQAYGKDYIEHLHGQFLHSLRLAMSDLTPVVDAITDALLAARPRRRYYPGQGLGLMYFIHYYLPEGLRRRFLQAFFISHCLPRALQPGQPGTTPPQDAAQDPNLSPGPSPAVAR
row,SMILES,pIC50
1,"CSCC(=O)O[C@H]1CC[C@@]2(C)[C@@H](CC[C@]3(C)[C@@H]2C(=O)C=C2[C@@H]4C[C@@](C)(C(=O)O)CC[C@]4(C)CC[C@]23C)[C@]1(C)C(=O)O [(2S,4aS,6aS,6bR,8aR,9S,10S,12aS,12bR,14bR)-2,4a,6a,6b,9,12a-hexamethyl-10-{[2-(methylsulfanyl)acetyl]oxy}-13-oxo-1,2,3,4,4a,5,6,6a,6b,7,8,8a,9,10,11,12,12a,12b,13,14b-icosahydropicene-2,9-dicarboxylic acid]",5.4
2,"COCC(=O)O[C@H]1CC[C@@]2(C)[C@@H](CC[C@]3(C)[C@@H]2C(=O)C=C2[C@@H]4C[C@@](C)(C(=O)O)CC[C@]4(C)CC[C@]23C)[C@]1(C)C(=O)OCc1oc(=O)oc1C [Compound 709-1, (2S,4aS,6aS,6bR,8aR,9S,10S,12aS,12bR,14bR)-10-[(2-methoxyacetyl)oxy]-2,4a,6a,6b,9,12a-hexamethyl-9-{[(5-methyl-2-oxo-2H-1,3-dioxol-4-yl)methoxy]carbonyl}-13-oxo-1,2,3,4,4a,5,6,6a,6b,7,8,8a,9,10,11,12,12a,12b,13,14b-icosahydropicene-2-carboxylic acid]",7.2
3,"CC(=O)O[C@H]1CC[C@@]2(C)[C@@H](CC[C@]3(C)[C@@H]2C(=O)C=C2[C@@H]4C[C@@](C)(C(=O)O)CC[C@]4(C)CC[C@]23C)[C@]1(C)C(=O)OCc1oc(=O)oc1-c1ccccc1 [Compound 707-1, (2S,4aS,6aS,6bR,8aR,9S,10S,12aS,12bR,14bR)-10-(acetyloxy)-2,4a,6a,6b,9,12a-hexamethyl-13-oxo-9-{[(2-oxo-5-phenyl-2H-1,3-dioxol-4-yl)methoxy]carbonyl}-1,2,3,4,4a,5,6,6a,6b,7,8,8a,9,10,11,12,12a,12b,13,14b-icosahydropicene-2-carboxylic acid]",7.1
4,"CCc1oc(=O)oc1COC(=O)[C@@]1(C)[C@@H]2CC[C@]3(C)[C@H](C(=O)C=C4[C@@H]5C[C@@](C)(C(=O)O)CC[C@]5(C)CC[C@]43C)[C@@]2(C)CC[C@@]1(C)OC(C)=O [Compound 703-1, (2S,4aS,6aS,6bR,8aR,9S,10R,12aS,12bR,14bR)-10-(acetyloxy)-9-{[(5-ethyl-2-oxo-2H-1,3-dioxol-4-yl)methoxy]carbonyl}-2,4a,6a,6b,9,10,12a-heptamethyl-13-oxo-1,2,3,4,4a,5,6,6a,6b,7,8,8a,9,10,11,12,12a,12b,13,14b-icosahydropicene-2-carboxylic acid]",6.1
5,"CCCc1oc(=O)oc1COC(=O)[C@]1(C)[C@@H](OC(C)=O)CC[C@@]2(C)[C@H]1CC[C@]1(C)[C@@H]2C(=O)C=C2[C@@H]3C[C@@](C)(C(=O)O)CC[C@]3(C)CC[C@]21C [Compound 706-1, (2S,4aS,6aS,6bR,8aR,9S,10S,12aS,12bR,14bR)-10-(acetyloxy)-2,4a,6a,6b,9,12a-hexamethyl-13-oxo-9-{[(2-oxo-5-propyl-2H-1,3-dioxol-4-yl)methoxy]carbonyl}-1,2,3,4,4a,5,6,6a,6b,7,8,8a,9,10,11,12,12a,12b,13,14b-icosahydropicene-2-carboxylic acid]",6.7
6,"CSCC(=O)O[C@H]1CC[C@@]2(C)[C@@H](CC[C@]3(C)[C@@H]2C(=O)C=C2[C@@H]4C[C@@](C)(C(=O)O)CC[C@]4(C)CC[C@]23C)[C@]1(C)C(=O)OCc1oc(=O)oc1C [Compound 194-10, (2S,4aS,6aS,6bR,8aR,9S,10S,12aS,12bR,14bR)-2,4a,6a,6b,9,12a-Hexamethyl-9-(((5-methyl-2-oxo-1,3-dioxol-4-yl)methoxy)carbonyl)-10-(2-(methylthio)acetoxy)-13-oxo-1,2,3,4,4a,5,6,6a,6b,7,8,8a,9,10,11,12,12a,12b,13,14b-icosahydropicene-2-carboxylic acid]",8
7,"Cc1oc(=O)oc1COC(=O)CO[C@H]1CC[C@]2(C)[C@H]3C(=O)C=C4[C@@H]5C[C@@](C)(C(=O)O)CC[C@]5(C)CC[C@@]4(C)[C@]3(C)CC[C@H]2C1(C)C [Compound 712-1, (2S,4aS,6aS,6bR,8aR,10S,12aS,12bR,14bR)-2,4a,6a,6b,9,9,12a-heptamethyl-10-{2-[(5-methyl-2-oxo-2H-1,3-dioxol-4-yl)methoxy]-2-oxoethoxy}-13-oxo-1,2,3,4,4a,5,6,6a,6b,7,8,8a,9,10,11,12,12a,12b,13,14b-icosahydropicene-2-carboxylic acid]",5
8,"Cc1oc(=O)oc1COC(=O)[C@]1(C)[C@@H](OC(=O)CS(C)(=O)=O)CC[C@@]2(C)[C@H]1CC[C@]1(C)[C@@H]2C(=O)C=C2[C@@H]3C[C@@](C)(C(=O)O)CC[C@]3(C)CC[C@]21C [Compound 195-2, (2S,4aS,6aS,6bR,8aR,9S,10S,12aS,12bR,14bR)-2,4a,6a,6b,9,12a-Hexamethyl-9-(((5-methyl-2-oxo-1,3-dioxol-4-yl)methoxy)carbonyl)-10-(2-(methylsulfonyl)acetoxy)-13-oxo-1,2,3,4,4a,5,6,6a,6b,7,8,8a,9,10,11,12,12a,12b,13,14b-icosahydropicene-2-carboxylic acid]",6.3
9,"Cc1oc(=O)oc1COC(=O)[C@]1(C)[C@@H](OC(=O)c2ccccc2)CC[C@@]2(C)[C@H]1CC[C@]1(C)[C@@H]2C(=O)C=C2[C@@H]3C[C@@](C)(C(=O)O)CC[C@]3(C)CC[C@]21C [Compound 197-2, (2S,4aS,6aS,6bR,8aR,9S,10S,12aS,12bR,14bR)-10-(Benzoyloxy)-2,4a,6a,6b,9,12a-hexamethyl-9-(((5-methyl-2-oxo-1,3-dioxol-4-yl)methoxy)carbonyl)-13-oxo-1,2,3,4,4a,5,6,6a,6b,7,8,8a,9,10,11,12,12a,12b,13,14b-icosahydropicene-2-carboxylic acid]",7.9
10,"COC(=O)N[C@H]1CC[C@@]2(C)[C@@H](CC[C@]3(C)[C@@H]2C(=O)C=C2[C@@H]4C[C@@](C)(C(=O)O)CC[C@]4(C)CC[C@]23C)[C@]1(C)C(=O)OCc1oc(=O)oc1C [Compound 281-3, (2S,4aS,6aS,6bR,8aR,9S,10S,12aS,12bR,14bR)-10-((methoxycarbonyl)amino)-2,4a,6a,6b,9,12a-hexamethyl-9-(((5-methyl-2-oxo-1,3-dioxol-4-yl)methoxy)carbonyl)-13-oxo-1,2,3,4,4a,5,6,6a,6b,7,8,8a,9,10,11,12,12a,12b,13,14b-icosahydropicene-2-carboxylic acid]",6.7
11,"CC1(C)[C@@H](OCC(=O)O)CC[C@]2(C)[C@H]3C(=O)C=C4[C@@H]5C[C@@](C)(C(=O)O)CC[C@]5(C)CC[C@@]4(C)[C@]3(C)CC[C@@H]12 [Compound 78-2, (2S,4aS,6aS,6bR,8aR,10S,12aS,12bR,14bR)-10-(Carboxymethoxy)-2,4a,6a,6b,9,9,12a-heptamethyl-13-oxo-1,2,3,4,4a,5,6,6a,6b,7,8,8a,9,10,11,12,12a,12b,13,14b-icosahydropicene-2-carboxylic acid]",5.4
12,"CCOC(=O)c1cnn([C@H]2CC[C@@]3(C)[C@@H](CC[C@]4(C)[C@@H]3C(=O)C=C3[C@@H]5C[C@@](C)(C(=O)O)CC[C@]5(C)CC[C@]34C)[C@]2(C)C(=O)O)c1OC [(2S,4aS,6aS,6bR,8aR,9S,10S,12aS,12bR,14bR)-10-[4-(ethoxycarbonyl)-5-methoxy-1H-pyrazol-1-yl]-2,4a,6a,6b,9,12a-hexamethyl-13-oxo-1,2,3,4,4a,5,6,6a,6b,7,8,8a,9,10,11,12,12a,12b,13,14b-icosahydropicene-2,9-dicarboxylic acid]",5.6
13,"C[C@]1(C(=O)O)CC[C@]2(C)CC[C@]3(C)C(=CC(=O)[C@@H]4[C@@]5(C)CC[C@H](OC(=O)C6CC6)[C@@](C)(C(=O)O)[C@@H]5CC[C@]43C)[C@@H]2C1 [(2S,4aS,6aS,6bR,8aR,9S,10S,12aS,12bR,14bR)-10-(cyclopropanecarbonyloxy)-2,4a,6a,6b,9,12a-hexamethyl-13-oxo-1,2,3,4,4a,5,6,6a,6b,7,8,8a,9,10,11,12,12a,12b,13,14b-icosahydropicene-2,9-dicarboxylic acid]",5.8
14,"CC(=O)O[C@H]1CC[C@@]2(C)[C@@H](CC[C@]3(C)[C@@H]2C(=O)C=C2[C@@H]4C[C@@](C)(C(=O)O)CC[C@]4(C)CC[C@]23C)[C@]1(C)C(=O)OCc1oc(=O)oc1C(C)C [Compound 209-3, (2S,4aS,6aS,6bR,8aR,9S,10S,12aS,12bR,14bR)-10-acetoxy-9-(((5-isopropyl-2-oxo-1,3-dioxol-4-yl)methoxy)carbonyl)-2,4a,6a,6b,9,12a-hexamethyl-13-oxo-1,2,3,4,4a,5,6,6a,6b,7,8,8a,9,10,11,12,12a,12b,13,14b-icosahydropicene-2-carboxylic acid]",7.2
15,"CC1(C)[C@@H](C(=O)OCC2COC(=O)O2)CC[C@]2(C)[C@H]3C(=O)C=C4[C@@H]5C[C@@](C)(C(=O)O)CC[C@]5(C)CC[C@@]4(C)[C@]3(C)CC[C@@H]12 (stereo partly drawn) [Compound 700-1, (2S,4aS,6aS,6bR,8aS,10S,12aS,12bR,14bR)-2,4a,6a,6b,9,9,12a-heptamethyl-13-oxo-10-{[(2-oxo-1,3-dioxolan-4-yl)methoxy]carbonyl}-1,2,3,4,4a,5,6,6a,6b,7,8,8a,9,10,11,12,12a,12b,13,14b-icosahydropicene-2-carboxylic acid]",6.1
16,"COCO[C@H]1CC[C@@]2(C)[C@@H](CC[C@]3(C)[C@@H]2C(=O)C=C2[C@@H]4C[C@@](C)(C(=O)O)CC[C@]4(C)CC[C@]23C)[C@]1(C)C(=O)O [(2S,4aS,6aS,6bR,8aR,9S,10S,12aS,12bR,14bR)-10-(methoxymethoxy)-2,4a,6a,6b,9,12a-hexamethyl-13-oxo-1,2,3,4,4a,5,6,6a,6b,7,8,8a,9,10,11,12,12a,12b,13,14b-icosahydropicene-2,9-dicarboxylic acid]",5.1
17,"CCOC(=O)c1cnn([C@H]2CC[C@@]3(C)[C@@H](CC[C@]4(C)[C@@H]3C(=O)C=C3[C@@H]5C[C@@](C)(C(=O)O)CC[C@]5(C)CC[C@]34C)[C@]2(C)C(=O)OCc2oc(=O)oc2C)c1OC [Compound 713-1, (2S,4aS,6aS,6bR,8aR,9S,10S,12aS,12bR,14bR)-10-[4-(ethoxycarbonyl)-5-methoxy-1H-pyrazol-1-yl]-2,4a,6a,6b,9,12a-hexamethyl-9-{[(5-methyl-2-oxo-2H-1,3-dioxol-4-yl)methoxy]carbonyl}-13-oxo-1,2,3,4,4a,5,6,6a,6b,7,8,8a,9,10,11,12,12a,12b,13,14b-icosahydropicene-2-carboxylic acid]",6.9
